Data from patent US6706663B2, “Herbicidal 3-heterocyclic substituted benzisothiazole and benzisoxazole compounds” (Wyeth, priority 2000, dated 2004).

What was measured:
[1] = tested on: ABUTH (Abutilon theophrasti); test: Postemergence herbicidal evaluation; assay type: in vivo, Medic.
Summary of the method: (§1)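 Seedlings grown for about two weeks were sprayed postemergence and then kept under standard greenhouse care. Injury was rated visually 4–5 weeks after treatment on a 0–9 scale against untreated controls, and ratings from repeat tests were averaged.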

[2] = tested on: AMBEL (Ambrosia artemisifolia); test: Postemergence herbicidal evaluation; assay type: in vivo, L.
Summary of the method: as §1

[3] = tested on: CASOB (Cassia obtusifolia); test: Postemergence herbicidal evaluation; assay type: in vivo, L.
Summary of the method: as §1

[4] = tested on: CHEAL (Chenopodium album); test: Postemergence herbicidal evaluation; assay type: in vivo, L.
Summary of the method: as §1

[5] = tested on: IPOHE (Ipomoea hederacea); test: Postemergence herbicidal evaluation; assay type: in vivo, (L.) Jacq.
Summary of the method: as §1

[6] = tested on: GLXMAW (Soybean, Williams); test: Postemergence herbicidal evaluation; assay type: in vivo, Glycine max, (L.) Merr. cv Williams
Summary of the method: as §1

[7] = tested on: ORYSAT (Rice, Tebonnet); test: Postemergence herbicidal evaluation; assay type: in vivo, Oryza sativa, (L.) Tebonnet
Summary of the method: as §1

[8] = tested on: ABUTH (Abutilon theophrasti); test: Preemergence herbicidal evaluation; assay type: in vivo, Medic.; conditions: preemergence, rated 4-5 weeks after treatment
[9] = tested on: AMBEL (Ambrosia artemisifolia); test: Preemergence herbicidal evaluation; assay type: in vivo, L.; conditions: preemergence, rated 4-5 weeks after treatment
Summary of the method: (§2)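 Each species was sown separately in potting soil over roughly one inch of soil, and the surface sprayed with compound dissolved in aqueous acetone. Assessment used a 0–9 visual scale against a control after four to five weeks.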

[10] = tested on: CASOB (Cassia obtusifolia); test: Preemergence herbicidal evaluation; assay type: in vivo, L.; conditions: preemergence, rated 4-5 weeks after treatment
Summary of the method: as §2

[11] = tested on: CHEAL (Chenopodium album); test: Preemergence herbicidal evaluation; assay type: in vivo, L.; conditions: preemergence, rated 4-5 weeks after treatment
Summary of the method: as §2

[12] = tested on: IPOHE (Ipomoea hederacea); test: Preemergence herbicidal evaluation; assay type: in vivo, (L.) Jacq.; conditions: preemergence, rated 4-5 weeks after treatment
[13] = tested on: ECHCG (Echinochloa crus-galli); test: Preemergence herbicidal evaluation; assay type: in vivo, (L.) Beau; conditions: preemergence, rated 4-5 weeks after treatment
Summary of the method: as §2

[14] = tested on: SETVI (Setaria viridis); test: Preemergence herbicidal evaluation; assay type: in vivo, (L.) Beau; conditions: preemergence, rated 4-5 weeks after treatment
Summary of the method: as §2

[15] = tested on: GLXMAW (Soybean, Williams); test: Preemergence herbicidal evaluation; assay type: in vivo, Glycine max, (L.) Merr. cv Williams; conditions: preemergence, rated 4-5 weeks after treatment
[16] = tested on: TRZAWR (Wheat, Winter, cv Riband); test: Preemergence herbicidal evaluation; assay type: in vivo, Triticum aestivum; conditions: preemergence, rated 4-5 weeks after treatment
Summary of the method: as §2

[17] = tested on: ZEAMX (Corn, Field); test: Preemergence herbicidal evaluation; assay type: in vivo, Zea mays, L.; conditions: preemergence, rated 4-5 weeks after treatment
[18] = tested on: CYPIR (Cyperus iria); test: Flooded paddy, preemergence weed control; assay type: in vivo; conditions: rated 3-4 weeks after treatment, 0-9 rating scale
Summary of the method: (§3)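 In this preemergence paddy assay, weed seeds or organs are sown at up to 0.5 cm in silt loam and covered by 1.5–3 cm of water for the full test period. After treatment the pots are kept in a greenhouse, and herbicidal effect is rated 0-9 visually against a control.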

[19] = tested on: MOOVA (Monochoria vaginalis); test: Flooded paddy, preemergence weed control; assay type: in vivo, Presl.; conditions: rated 3-4 weeks after treatment, 0-9 rating scale
Summary of the method: as §3

[20] = tested on: ORYSAT (Rice, Tebonnet); test: Flooded paddy, post-transplant rice tolerance; assay type: in vivo, Oryza sativa, (L.) Tebonnet; conditions: flooded paddy, post-transplant rice, rated 3-4 weeks after treatment, 0-9 rating scale
Summary of the method: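 Steps: transplant two ten-day-old seedlings into silt loam; flood to 1.5-3 cm above soil; apply herbicide post-transplant; maintain water on greenhouse benches; rate stand, vigor, malformation, size and chlorosis on a 0-9 visual scale versus control.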

## Cn1c(C(F)(F)F)cc(=O)n(-c2ccc3snc(-c4cccs4)c3c2)c1=O [Compound 3, 1-methyl-3-[3-(2-thienyl)-1,2-benzisothiazol-5-yl]-6-(trifluoromethyl)uracil]
[1]; rate 0.0320 kg/ha
  Postemergence herbicidal rating, ABUTH: 9.0
[1]; rate 0.0620 kg/ha
  Postemergence herbicidal rating, ABUTH: 9.0
[1]; rate 0.1250 kg/ha
  Postemergence herbicidal rating, ABUTH: 9.0
[2]; rate 0.0320 kg/ha
  Postemergence herbicidal rating, AMBEL: 9.0
[2]; rate 0.0620 kg/ha
  Postemergence herbicidal rating, AMBEL: 9.0
[2]; rate 0.1250 kg/ha
  Postemergence herbicidal rating, AMBEL: 9.0
[3]; rate 0.0320 kg/ha
  Postemergence herbicidal rating, CASOB: 4.0
[3]; rate 0.0620 kg/ha
  Postemergence herbicidal rating, CASOB: 5.0
[3]; rate 0.1250 kg/ha
  Postemergence herbicidal rating, CASOB: 9.0
[4]; rate 0.0320 kg/ha
  Postemergence herbicidal rating, CHEAL: 9.0
[4]; rate 0.0620 kg/ha
  Postemergence herbicidal rating, CHEAL: 9.0
[4]; rate 0.1250 kg/ha
  Postemergence herbicidal rating, CHEAL: 9.0
[5]; rate 0.0320 kg/ha
  Postemergence herbicidal rating, IPOHE: 9.0
[5]; rate 0.0620 kg/ha
  Postemergence herbicidal rating, IPOHE: 9.0
[5]; rate 0.1250 kg/ha
  Postemergence herbicidal rating, IPOHE: 9.0
[6]; rate 0.0320 kg/ha
  Postemergence herbicidal rating, GLXMAW: 6.0
[6]; rate 0.0620 kg/ha
  Postemergence herbicidal rating, GLXMAW: 6.5
[6]; rate 0.1250 kg/ha
  Postemergence herbicidal rating, GLXMAW: 8.5
[7]; rate 0.0320 kg/ha
  Postemergence herbicidal rating, ORYSAT: 3.0
[7]; rate 0.0620 kg/ha
  Postemergence herbicidal rating, ORYSAT: 4.0
[7]; rate 0.1250 kg/ha
  Postemergence herbicidal rating, ORYSAT: 4.5
[8]; Rate 0.0620 kg/ha
  ABUTH preemergence herbicidal rating: 8.5
[8]; Rate 0.1250 kg/ha
  ABUTH preemergence herbicidal rating: 9.0
[8]; Rate 0.2500 kg/ha
  ABUTH preemergence herbicidal rating: 9.0
[9]; Rate 0.0620 kg/ha
  AMBEL preemergence herbicidal rating: 8.0
[9]; Rate 0.1250 kg/ha
  AMBEL preemergence herbicidal rating: 9.0
[9]; Rate 0.2500 kg/ha
  AMBEL preemergence herbicidal rating: 9.0
[10]; Rate 0.0620 kg/ha
  CASOB preemergence herbicidal rating: 4.0
[10]; Rate 0.1250 kg/ha
  CASOB preemergence herbicidal rating: 4.5
[10]; Rate 0.2500 kg/ha
  CASOB preemergence herbicidal rating: 5.5
[11]; Rate 0.0620 kg/ha
  CHEAL preemergence herbicidal rating: 9.0
[11]; Rate 0.1250 kg/ha
  CHEAL preemergence herbicidal rating: 9.0
[11]; Rate 0.2500 kg/ha
  CHEAL preemergence herbicidal rating: 9.0
[12]; Rate 0.0620 kg/ha
  IPOHE preemergence herbicidal rating: 9.0
[12]; Rate 0.1250 kg/ha
  IPOHE preemergence herbicidal rating: 9.0
[12]; Rate 0.2500 kg/ha
  IPOHE preemergence herbicidal rating: 9.0
[13]; Rate 0.0620 kg/ha
  ECHCG preemergence herbicidal rating: 7.5
[13]; Rate 0.1250 kg/ha
  ECHCG preemergence herbicidal rating: 7.0
[13]; Rate 0.2500 kg/ha
  ECHCG preemergence herbicidal rating: 9.0
[14]; Rate 0.0620 kg/ha
  SETVI preemergence herbicidal rating: 9.0
[14]; Rate 0.1250 kg/ha
  SETVI preemergence herbicidal rating: 8.5
[14]; Rate 0.2500 kg/ha
  SETVI preemergence herbicidal rating: 9.0
[15]; Rate 0.0620 kg/ha
  GLXMAW preemergence herbicidal rating: 5.5
[15]; Rate 0.1250 kg/ha
  GLXMAW preemergence herbicidal rating: 9.0
[15]; Rate 0.2500 kg/ha
  GLXMAW preemergence herbicidal rating: 9.0
[16]; Rate 0.0620 kg/ha
  TRZAWR preemergence herbicidal rating: 4.0
[16]; Rate 0.1250 kg/ha
  TRZAWR preemergence herbicidal rating: 5.0
[16]; Rate 0.2500 kg/ha
  TRZAWR preemergence herbicidal rating: 6.0
[17]; Rate 0.0620 kg/ha
  ZEAMX preemergence herbicidal rating: 6.5
[17]; Rate 0.1250 kg/ha
  ZEAMX preemergence herbicidal rating: 6.5
[17]; Rate 0.2500 kg/ha
  ZEAMX preemergence herbicidal rating: 7.0
[18]; rate 0.0080 kg/ha
  herbicidal rating, CYPIR: 0.0
[18]; rate 0.0320 kg/ha
  herbicidal rating, CYPIR: 8.5
[18]; rate 0.1250 kg/ha
  herbicidal rating, CYPIR: 9.0
[19]; rate 0.0080 kg/ha
  herbicidal rating, MOOVA: 9.0
[19]; rate 0.0320 kg/ha
  herbicidal rating, MOOVA: 9.0
[19]; rate 0.1250 kg/ha
  herbicidal rating, MOOVA: 9.0
[20]; rate 0.0080 kg/ha
  herbicidal rating, ORYSAT (rice tolerance): 3.0
[20]; rate 0.0320 kg/ha
  herbicidal rating, ORYSAT (rice tolerance): 3.5
[20]; rate 0.1250 kg/ha
  herbicidal rating, ORYSAT (rice tolerance): 5.5
